Data taken from ChEMBL document CHEMBL3813664, “Synthesis and evaluation of biphenyl derivatives as potential downregulators of VEGF protein secretion and telomerase-related gene expressions” (Bioorg Med Chem, 2016).
Converted amounts (≈) assume the structure as drawn.

Legend:
[1] = Therapeutic index, ratio of IC50 for HEK293 cells to IC50 for human HT-29 cells; type: cell-based; settings: HEK293 cells versus HT-29 cells, read-out: Ratio IC50
MCF7 = test: Cytotoxicity against human MCF7 cells assessed as reduction in cell growth after 3 days by MTT assay; type: functional, cell-based; settings: MCF7, 72 h
HT-29 = test: Cytotoxicity against human HT-29 cells assessed as reduction in cell growth after 3 days by MTT assay; type: functional, cell-based; settings: HT-29, 72 h
[2] = Therapeutic index, ratio of IC50 for HEK293 cells to IC50 for human MCF7 cells; type: cell-based; settings: HEK293 cells versus MCF7 cells, read-out: Ratio IC50
HEK293 = test: Cytotoxicity against HEK293 cells assessed as reduction in cell growth after 3 days by MTT assay; type: cell-based; settings: Homo sapiens, HEK293, 72 h

Compound	selectivity ratio [1]	IC50 (MCF7) [µg/mL]	IC50 (HT-29) [µg/mL]	selectivity ratio [2]	IC50 (HEK293) [µg/mL]
COc1ccc(-c2ccccc2O)cc1OC	< 0.2	55 (≈ 239 µM)	> 100	0.4	23 (≈ 99.9 µM)
COc1ccc(-c2cccc(O)c2)cc1	0.2	48 (≈ 240 µM)	72 (≈ 360 µM)	0.3	14.6 (≈ 72.9 µM)
COc1ccccc1-c1ccc(O)cc1	0.9	55 (≈ 275 µM)	49 (≈ 245 µM)	0.8	44 (≈ 220 µM)
COc1ccc(-c2ccccc2)c(OC)c1	0.5	> 100	55.2 (≈ 258 µM)	< 0.3	27 (≈ 126 µM)
Nc1ccc(-c2ccc(O)cc2)cc1	1.1	49.9 (≈ 269 µM)	56 (≈ 302 µM)	1.2	62 (≈ 335 µM)
Oc1cccc(-c2ccccc2)c1	0.9	27.4 (≈ 161 µM)	28 (≈ 165 µM)	0.9	25 (≈ 147 µM)
COc1ccc(-c2cccc(O)c2)cc1OC	0.8	48 (≈ 208 µM)	29 (≈ 126 µM)	0.5	23.1 (≈ 100 µM)
COc1ccc(-c2ccc(O)cc2)cc1	< 0.1	53 (≈ 265 µM)	> 100	< 0.1	2 (≈ 9.99 µM)
Nc1cccc(-c2ccccc2)c1	1.3	60 (≈ 355 µM)	42 (≈ 248 µM)	0.9	54 (≈ 319 µM)
Oc1ccc(-c2ccc(O)cc2)cc1	0.4	17.8 (≈ 95.6 µM)	13.9 (≈ 74.6 µM)	0.3	5.1 (≈ 27.4 µM)
COc1cccc(-c2ccccc2O)c1	1.1	43 (≈ 215 µM)	35 (≈ 175 µM)	0.9	39 (≈ 195 µM)
Nc1ccccc1-c1ccccc1O	1.2	56 (≈ 302 µM)	44 (≈ 238 µM)	1	54.1 (≈ 292 µM)
COc1ccccc1-c1ccccc1	1	1.6 (≈ 8.68 µM)	51 (≈ 277 µM)	33	52 (≈ 282 µM)
Nc1ccc(-c2ccccc2)cc1 [BIPHENYL-4-AMINE]		1.4 (≈ 8.27 µM)	> 100	> 69	> 100
COc1ccc(-c2ccccc2N)c(OC)c1	> 2	56 (≈ 244 µM)	56 (≈ 244 µM)	> 2	> 100
Oc1ccccc1-c1ccccc1 [2-PHENYLPHENOL]	0.6	51 (≈ 300 µM)	55 (≈ 323 µM)	0.6	31.4 (≈ 184 µM)
COc1ccc(-c2ccccc2)cc1OC	0.6	45 (≈ 210 µM)	41 (≈ 191 µM)	0.6	26 (≈ 121 µM)
COc1ccc(-c2ccccc2O)cc1	0.9	42 (≈ 210 µM)	47 (≈ 235 µM)	1	44 (≈ 220 µM)
Nc1ccccc1-c1ccc(O)cc1	1	44.3 (≈ 239 µM)	51 (≈ 275 µM)	1.1	50 (≈ 270 µM)
COc1ccc(-c2ccccc2)cc1	0.4	> 100	45 (≈ 244 µM)	< 0.2	17 (≈ 92.3 µM)
Nc1ccc(-c2ccccc2O)cc1	1.2	52 (≈ 281 µM)	27.3 (≈ 147 µM)	0.6	31 (≈ 167 µM)
Nc1cccc(-c2ccccc2O)c1	1	28 (≈ 151 µM)	49 (≈ 265 µM)	1.7	47 (≈ 254 µM)
COc1ccc(-c2cccc(N)c2)c(OC)c1	0.6	> 100	49 (≈ 214 µM)	< 0.3	29.2 (≈ 127 µM)
COc1ccc(-c2cccc(O)c2)c(OC)c1	0.5	50.2 (≈ 218 µM)	54 (≈ 235 µM)	0.6	28 (≈ 122 µM)
